Measurements reported in ChEMBL document CHEMBL4715733, “Nitrobenzofurazan derivatives of N'-hydroxyamidines as potent inhibitors of indoleamine-2,3-dioxygenase 1” (Eur J Med Chem, 2016).

Assays:
[1] = target: Tryptophan 2,3-dioxygenase (Homo sapiens, UniProt P48775); test: Inhibition of recombinant human TDO assessed as N-formylkynurenine formation using L-tryptophan as substrate measured after 1 hrs by UV-vis spectrophotometric analysis
[2] = target: T1, Indoleamine 2,3-dioxygenase 1 (Homo sapiens, UniProt P14902); test: Inhibition of recombinant human IDO1 assessed as N-formylkynurenine formation using L-tryptophan as substrate measured after 1 hr by UV-vis spectrophotometric analysis
T1 sequence (P14902 whole entry): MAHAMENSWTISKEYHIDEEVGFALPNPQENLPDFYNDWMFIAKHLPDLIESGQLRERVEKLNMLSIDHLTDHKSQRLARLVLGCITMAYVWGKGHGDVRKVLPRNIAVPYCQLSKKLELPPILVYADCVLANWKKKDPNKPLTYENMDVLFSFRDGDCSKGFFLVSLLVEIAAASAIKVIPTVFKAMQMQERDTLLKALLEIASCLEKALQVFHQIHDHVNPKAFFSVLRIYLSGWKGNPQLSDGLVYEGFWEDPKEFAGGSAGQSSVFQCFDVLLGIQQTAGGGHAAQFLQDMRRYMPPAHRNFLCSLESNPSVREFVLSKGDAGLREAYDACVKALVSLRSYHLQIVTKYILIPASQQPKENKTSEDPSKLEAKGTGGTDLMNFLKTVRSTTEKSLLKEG

[3] = target: T1, Indoleamine 2,3-dioxygenase 1; test: Inhibition of recombinant human IDO1 assessed as N-formylkynurenine formation using L-tryptophan as substrate measured after 1.5 hrs by HPLC analysis
[4] = target: T1, Indoleamine 2,3-dioxygenase 1; test: Inhibition of human IDO1 in IFN-gamma-induced human MDA-MB-231 cells assessed as N-formylkynurenine formation using L-tryptophan as substrate pretreated for 4 hrs followed substrate addition measured after 5 hrs by UV-vis spectrophotometric analysis; format: cell-based

Chain of Tryptophan 2,3-dioxygenase (P48775 whole entry): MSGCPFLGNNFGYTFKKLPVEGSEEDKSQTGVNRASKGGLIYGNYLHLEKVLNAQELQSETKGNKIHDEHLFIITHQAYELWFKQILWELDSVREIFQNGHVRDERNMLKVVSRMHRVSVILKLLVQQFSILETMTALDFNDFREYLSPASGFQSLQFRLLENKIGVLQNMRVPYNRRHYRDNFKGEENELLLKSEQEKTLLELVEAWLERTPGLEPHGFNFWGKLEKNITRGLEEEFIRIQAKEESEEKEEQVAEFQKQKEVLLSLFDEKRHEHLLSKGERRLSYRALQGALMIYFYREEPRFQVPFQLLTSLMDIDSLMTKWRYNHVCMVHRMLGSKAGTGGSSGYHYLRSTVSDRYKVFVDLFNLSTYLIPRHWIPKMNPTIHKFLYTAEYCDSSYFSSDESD

SMILES | IC50 [1] [nM] | IC50 [2] [nM] | IC50 [3] [nM] | IC50 [4] [nM]
O=[N+]([O-])c1ccc(N/C(Cc2ccc(F)cc2F)=N\O)c2nonc12 | 19000 | 160 |  | 
O=[N+]([O-])c1ccc(N/C(Cc2ccccc2)=N\O)c2nonc12 |  | 307 |  | 
O=[N+]([O-])c1ccc(N/C(=N\O)c2ccc(F)cc2)c2nonc12 | 21000 | 100 | 60 | 125
O=[N+]([O-])c1ccc(N/C(=N\O)c2ccccc2Br)c2nonc12 | 25000 | 80 | 64 | 66
O=[N+]([O-])c1ccc(N/C(Cc2ccc(F)cc2)=N\O)c2nonc12 | 65000 | 98 | 73 | 151
COc1ccc(C/C(=N/O)Nc2ccc([N+](=O)[O-])c3nonc23)cc1 |  | 128 |  | 
Cc1ccc(/C(=N/O)Nc2ccc([N+](=O)[O-])c3nonc23)cc1 |  | 204 |  | 
O=[N+]([O-])c1ccc(N/C(=N\O)c2ccc(Br)cc2)c2nonc12 | 50000 | 117 |  | 
O=[N+]([O-])c1ccc(N/C(Cc2cccc(F)c2)=N\O)c2nonc12 |  | 131 |  | 
O=[N+]([O-])c1ccc(N/C(=N\O)c2ccccc2)c2nonc12 |  | 268 |  | 
O=[N+]([O-])c1ccc(N/C(Cc2ccc(Cl)c(Cl)c2)=N\O)c2nonc12 | 32000 | 39 | 53 | 71
O=[N+]([O-])c1ccc(N/C(=N\O)c2ccccc2F)c2nonc12 | 110000 | 63 | 56 | 131
O=[N+]([O-])c1ccc(N/C(Cc2cccc(Cl)c2)=N\O)c2nonc12 |  | 199 |  | 
O=[N+]([O-])c1ccc(N/C(Cc2ccc(F)c(F)c2)=N\O)c2nonc12 | 94000 | 59 | 49 | 50
O=[N+]([O-])c1ccc(N/C(=N\O)c2cccc(F)c2)c2nonc12 | 45000 | 75 | 84 | 245
O=[N+]([O-])c1ccc(N/C(=N\O)c2ccc(F)c(Br)c2)c2nonc12 | 47000 | 92 | 106 | 107
O=[N+]([O-])c1ccc(N/C(=N\O)c2cccc(Cl)c2)c2nonc12 |  | 184 |  | 
O=[N+]([O-])c1ccc(N/C(=N\O)c2ccc(Cl)cc2)c2nonc12 | 40000 | 113 |  | 
Cc1cccc(/C(=N/O)Nc2ccc([N+](=O)[O-])c3nonc23)c1 |  | 163 |  | 
O=[N+]([O-])c1ccc(N/C(Cc2ccc(Br)cc2)=N\O)c2nonc12 | 43000 | 112 |  | 
O=[N+]([O-])c1ccc(N/C(Cc2ccccc2F)=N\O)c2nonc12 | 30000 | 102 | 75 | 131
O=[N+]([O-])c1ccc(N/C(=N\O)c2cccc(Br)c2)c2nonc12 | 20000 | 105 |  | 
O=[N+]([O-])c1ccc(N/C(Cc2ccc(Cl)cc2)=N\O)c2nonc12 | 51000 | 127 | 78 | 110
O=[N+]([O-])c1ccc(N/C(=N\O)c2ccc(F)c(Cl)c2)c2nonc12 |  | 158 |  | 
O=[N+]([O-])c1ccc(N/C(=N\O)c2ccccc2Cl)c2nonc12 |  | 135 |  | 
Nc1nonc1C(=NO)Nc1ccc(F)c(Cl)c1 | 24000 |  |  | 
